Results taken from ChEMBL document CHEMBL5649169 (ChemMedChem, 2018).

Key:
[1] = target: TBC1 domain family member 5 (Homo sapiens) (UniProt Q92609)
[2] = target: Katanin p60 ATPase-containing subunit A-like 2 (Homo sapiens) (UniProt Q8IYT4)
[3] = target: Tyrosine-protein kinase CSK (Homo sapiens) (UniProt P41240)
Titin (Homo sapiens) = Titin (Homo sapiens) (UniProt Q8WZ42)
[4] = target: Platelet-derived growth factor receptor beta (Homo sapiens) (UniProt P09619)
[5] = target: Conserved oligomeric Golgi complex subunit 1 (Homo sapiens) (UniProt Q8WTW3)
[6] = target: Dolichyl-diphosphooligosaccharide--protein glycosyltransferase subunit 2 (Homo sapiens) (UniProt P04844)
[7] = target: Exportin-2 (Homo sapiens) (UniProt P55060)
[8] = target: Tubulin beta-3 chain (Homo sapiens) (UniProt Q13509)
[9] = target: High affinity nerve growth factor receptor (Homo sapiens) (UniProt P04629)
[10] = target: Signal recognition particle 9 kDa protein (Homo sapiens) (UniProt P49458)
[11] = target: Pre-mRNA-processing-splicing factor 8 (Homo sapiens) (UniProt Q6P2Q9)
[12] = target: High mobility group protein B1 (Homo sapiens) (UniProt P09429)
Myosin-9 (Homo sapiens) = Myosin-9 (Homo sapiens) (UniProt P35579)
[13] = target: Heat shock protein HSP 90-alpha (Homo sapiens) (UniProt P07900)
[14] = target: Golgi apparatus protein 1 (Homo sapiens) (UniProt Q92896)
[15] = target: Epidermal growth factor receptor (Homo sapiens) (UniProt P00533)
[16] = target: Large ribosomal subunit protein eL24 (Homo sapiens) (UniProt P83731)
[17] = target: ATP synthase F(0) complex subunit g, mitochondrial (Homo sapiens) (UniProt O75964)
[18] = target: Cyclin-dependent kinase 17 (Homo sapiens) (UniProt Q00537)
[19] = target: DNA damage-binding protein 1 (Homo sapiens) (UniProt Q16531)
[20] = target: cAMP-dependent protein kinase catalytic subunit alpha (Homo sapiens) (UniProt P17612)
[21] = target: Tyrosine-protein kinase Lck (Homo sapiens) (UniProt P06239)
[22] = target: U2 snRNP-associated SURP motif-containing protein (Homo sapiens) (UniProt O15042)
[23] = target: Dual specificity mitogen-activated protein kinase kinase 6 (Homo sapiens) (UniProt P52564)
[24] = target: Insulin-like growth factor 1 receptor (Homo sapiens) (UniProt P08069)
[25] = target: Aurora kinase B (Homo sapiens) (UniProt Q96GD4)
[26] = target: Serine/threonine-protein kinase 3 (Homo sapiens) (UniProt Q13188)
[27] = target: Large ribosomal subunit protein uL6 (Homo sapiens) (UniProt P32969)
[28] = target: DNA repair protein RAD50 (Homo sapiens) (UniProt Q92878)
[29] = target: Serine hydroxymethyltransferase, mitochondrial (Homo sapiens) (UniProt P34897)
[30] = target: Protein transport protein Sec23B (Homo sapiens) (UniProt Q15437)
[31] = target: Gamma-tubulin complex component 3 (Homo sapiens) (UniProt Q96CW5)
[32] = target: Heat shock 70 kDa protein 4 (Homo sapiens) (UniProt P34932)
[33] = target: Valine--tRNA ligase (Homo sapiens) (UniProt P26640)
[34] = target: Insulin-like growth factor 2 mRNA-binding protein 1 (Homo sapiens) (UniProt Q9NZI8)
[35] = target: Ephrin type-B receptor 3 (Homo sapiens) (UniProt P54753)
[36] = target: Proteasomal ubiquitin receptor ADRM1 (Homo sapiens) (UniProt Q16186)
[37] = target: Tyrosine-protein kinase JAK1 (Homo sapiens) (UniProt P23458)
[38] = target: 5-azacytidine-induced protein 2 (Homo sapiens) (UniProt Q9H6S1)
[39] = target: cGMP-dependent protein kinase 1 (Homo sapiens) (UniProt Q13976)
[40] = target: Polyadenylate-binding protein 1 (Homo sapiens) (UniProt P11940)
[41] = target: Coatomer subunit epsilon (Homo sapiens) (UniProt O14579)
[42] = target: Heterogeneous nuclear ribonucleoprotein H3 (Homo sapiens) (UniProt P31942)
[43] = target: Microtubule-actin cross-linking factor 1, isoforms 1/2/3/4/5 (Homo sapiens) (UniProt Q9UPN3)
Dynamin-2 (Homo sapiens) = Dynamin-2 (Homo sapiens) (UniProt P50570)
Note: assay method not described here.

U2 snRNP-associated SURP motif-containing protein (Homo sapiens), sequence (O15042 whole entry): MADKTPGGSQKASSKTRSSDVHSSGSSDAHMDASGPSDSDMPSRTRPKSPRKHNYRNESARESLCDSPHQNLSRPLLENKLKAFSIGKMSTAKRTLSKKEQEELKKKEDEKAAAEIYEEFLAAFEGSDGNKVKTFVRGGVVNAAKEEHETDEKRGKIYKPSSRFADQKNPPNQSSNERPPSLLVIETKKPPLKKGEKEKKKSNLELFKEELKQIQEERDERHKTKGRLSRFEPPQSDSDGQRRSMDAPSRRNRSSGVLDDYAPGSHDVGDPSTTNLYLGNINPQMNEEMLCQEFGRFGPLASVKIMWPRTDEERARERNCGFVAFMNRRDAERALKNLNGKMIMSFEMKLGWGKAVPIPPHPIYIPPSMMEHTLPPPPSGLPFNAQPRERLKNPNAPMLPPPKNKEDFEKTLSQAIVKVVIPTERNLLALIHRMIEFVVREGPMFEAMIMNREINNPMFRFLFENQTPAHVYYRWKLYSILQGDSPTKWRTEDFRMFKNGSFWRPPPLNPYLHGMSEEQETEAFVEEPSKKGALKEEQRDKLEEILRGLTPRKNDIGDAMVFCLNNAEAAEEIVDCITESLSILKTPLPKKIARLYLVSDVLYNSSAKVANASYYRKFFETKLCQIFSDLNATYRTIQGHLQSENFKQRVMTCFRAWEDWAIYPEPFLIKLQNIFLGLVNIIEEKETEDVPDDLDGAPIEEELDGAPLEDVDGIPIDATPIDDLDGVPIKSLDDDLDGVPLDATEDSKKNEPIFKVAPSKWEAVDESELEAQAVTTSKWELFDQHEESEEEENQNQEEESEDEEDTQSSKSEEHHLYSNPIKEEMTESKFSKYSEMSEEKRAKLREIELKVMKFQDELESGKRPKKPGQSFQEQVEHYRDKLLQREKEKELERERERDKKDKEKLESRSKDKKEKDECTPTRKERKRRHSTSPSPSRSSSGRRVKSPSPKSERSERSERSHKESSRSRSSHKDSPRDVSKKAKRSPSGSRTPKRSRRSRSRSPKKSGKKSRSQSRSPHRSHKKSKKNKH
Insulin-like growth factor 1 receptor (Homo sapiens), sequence (P08069 31-736 limits assumed): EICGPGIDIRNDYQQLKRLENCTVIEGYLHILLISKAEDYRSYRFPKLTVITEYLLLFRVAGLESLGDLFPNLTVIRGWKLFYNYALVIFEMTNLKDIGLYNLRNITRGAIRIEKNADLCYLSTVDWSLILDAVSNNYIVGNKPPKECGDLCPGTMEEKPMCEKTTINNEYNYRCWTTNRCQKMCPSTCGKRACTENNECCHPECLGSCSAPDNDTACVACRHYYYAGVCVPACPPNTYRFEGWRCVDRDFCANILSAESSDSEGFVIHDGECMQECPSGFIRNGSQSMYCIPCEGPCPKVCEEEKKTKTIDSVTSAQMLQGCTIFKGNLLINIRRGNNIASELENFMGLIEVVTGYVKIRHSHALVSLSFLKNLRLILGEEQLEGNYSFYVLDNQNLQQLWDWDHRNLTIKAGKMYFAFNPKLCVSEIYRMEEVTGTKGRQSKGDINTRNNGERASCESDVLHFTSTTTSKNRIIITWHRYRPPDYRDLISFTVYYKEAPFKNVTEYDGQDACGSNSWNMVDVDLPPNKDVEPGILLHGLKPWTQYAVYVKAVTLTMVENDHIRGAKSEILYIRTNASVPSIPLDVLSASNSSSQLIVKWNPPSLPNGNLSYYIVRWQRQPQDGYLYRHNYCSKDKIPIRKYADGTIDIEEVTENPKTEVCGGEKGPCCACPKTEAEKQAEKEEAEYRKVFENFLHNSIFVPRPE
Insulin-like growth factor 1 receptor (Homo sapiens), sequence (P08069 741-1367 limits assumed): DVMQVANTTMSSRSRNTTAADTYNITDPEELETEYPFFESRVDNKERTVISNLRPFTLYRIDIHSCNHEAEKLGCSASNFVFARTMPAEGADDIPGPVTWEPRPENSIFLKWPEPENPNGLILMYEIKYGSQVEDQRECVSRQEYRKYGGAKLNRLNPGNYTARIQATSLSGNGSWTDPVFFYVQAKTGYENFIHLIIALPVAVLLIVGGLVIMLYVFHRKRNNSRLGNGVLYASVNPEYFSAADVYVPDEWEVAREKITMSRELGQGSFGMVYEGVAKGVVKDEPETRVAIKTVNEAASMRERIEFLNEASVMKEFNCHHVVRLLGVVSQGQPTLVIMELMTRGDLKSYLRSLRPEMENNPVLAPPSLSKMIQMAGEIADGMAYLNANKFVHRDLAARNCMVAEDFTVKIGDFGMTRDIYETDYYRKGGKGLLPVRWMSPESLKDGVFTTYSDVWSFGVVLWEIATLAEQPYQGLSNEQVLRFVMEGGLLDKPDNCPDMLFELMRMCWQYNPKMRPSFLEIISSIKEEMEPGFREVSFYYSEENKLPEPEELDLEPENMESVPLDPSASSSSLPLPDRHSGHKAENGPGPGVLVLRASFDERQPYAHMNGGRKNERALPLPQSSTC
TBC1 domain family member 5 (Homo sapiens), sequence (Q92609 whole entry, the tested form may be a part): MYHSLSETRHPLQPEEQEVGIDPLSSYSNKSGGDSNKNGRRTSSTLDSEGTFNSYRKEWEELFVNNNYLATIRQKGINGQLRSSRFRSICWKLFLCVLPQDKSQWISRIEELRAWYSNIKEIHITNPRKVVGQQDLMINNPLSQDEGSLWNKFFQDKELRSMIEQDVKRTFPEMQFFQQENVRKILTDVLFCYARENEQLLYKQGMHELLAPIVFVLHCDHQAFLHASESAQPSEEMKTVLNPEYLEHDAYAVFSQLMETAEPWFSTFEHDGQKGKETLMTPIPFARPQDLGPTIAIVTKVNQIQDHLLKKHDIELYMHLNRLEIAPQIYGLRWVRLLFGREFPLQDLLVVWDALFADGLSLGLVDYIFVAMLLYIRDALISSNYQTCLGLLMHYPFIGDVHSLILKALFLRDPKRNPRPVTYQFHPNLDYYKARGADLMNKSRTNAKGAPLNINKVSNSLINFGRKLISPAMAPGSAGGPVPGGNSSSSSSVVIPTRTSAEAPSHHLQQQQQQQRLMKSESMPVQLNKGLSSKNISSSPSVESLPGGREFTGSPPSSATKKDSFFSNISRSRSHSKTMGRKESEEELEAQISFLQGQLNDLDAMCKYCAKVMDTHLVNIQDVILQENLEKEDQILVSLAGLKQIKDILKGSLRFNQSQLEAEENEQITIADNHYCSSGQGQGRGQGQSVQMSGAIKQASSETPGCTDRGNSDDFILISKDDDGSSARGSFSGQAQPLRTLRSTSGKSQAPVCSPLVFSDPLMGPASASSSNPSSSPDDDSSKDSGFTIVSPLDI
Myosin-9 (Homo sapiens), sequence (P35579 whole entry): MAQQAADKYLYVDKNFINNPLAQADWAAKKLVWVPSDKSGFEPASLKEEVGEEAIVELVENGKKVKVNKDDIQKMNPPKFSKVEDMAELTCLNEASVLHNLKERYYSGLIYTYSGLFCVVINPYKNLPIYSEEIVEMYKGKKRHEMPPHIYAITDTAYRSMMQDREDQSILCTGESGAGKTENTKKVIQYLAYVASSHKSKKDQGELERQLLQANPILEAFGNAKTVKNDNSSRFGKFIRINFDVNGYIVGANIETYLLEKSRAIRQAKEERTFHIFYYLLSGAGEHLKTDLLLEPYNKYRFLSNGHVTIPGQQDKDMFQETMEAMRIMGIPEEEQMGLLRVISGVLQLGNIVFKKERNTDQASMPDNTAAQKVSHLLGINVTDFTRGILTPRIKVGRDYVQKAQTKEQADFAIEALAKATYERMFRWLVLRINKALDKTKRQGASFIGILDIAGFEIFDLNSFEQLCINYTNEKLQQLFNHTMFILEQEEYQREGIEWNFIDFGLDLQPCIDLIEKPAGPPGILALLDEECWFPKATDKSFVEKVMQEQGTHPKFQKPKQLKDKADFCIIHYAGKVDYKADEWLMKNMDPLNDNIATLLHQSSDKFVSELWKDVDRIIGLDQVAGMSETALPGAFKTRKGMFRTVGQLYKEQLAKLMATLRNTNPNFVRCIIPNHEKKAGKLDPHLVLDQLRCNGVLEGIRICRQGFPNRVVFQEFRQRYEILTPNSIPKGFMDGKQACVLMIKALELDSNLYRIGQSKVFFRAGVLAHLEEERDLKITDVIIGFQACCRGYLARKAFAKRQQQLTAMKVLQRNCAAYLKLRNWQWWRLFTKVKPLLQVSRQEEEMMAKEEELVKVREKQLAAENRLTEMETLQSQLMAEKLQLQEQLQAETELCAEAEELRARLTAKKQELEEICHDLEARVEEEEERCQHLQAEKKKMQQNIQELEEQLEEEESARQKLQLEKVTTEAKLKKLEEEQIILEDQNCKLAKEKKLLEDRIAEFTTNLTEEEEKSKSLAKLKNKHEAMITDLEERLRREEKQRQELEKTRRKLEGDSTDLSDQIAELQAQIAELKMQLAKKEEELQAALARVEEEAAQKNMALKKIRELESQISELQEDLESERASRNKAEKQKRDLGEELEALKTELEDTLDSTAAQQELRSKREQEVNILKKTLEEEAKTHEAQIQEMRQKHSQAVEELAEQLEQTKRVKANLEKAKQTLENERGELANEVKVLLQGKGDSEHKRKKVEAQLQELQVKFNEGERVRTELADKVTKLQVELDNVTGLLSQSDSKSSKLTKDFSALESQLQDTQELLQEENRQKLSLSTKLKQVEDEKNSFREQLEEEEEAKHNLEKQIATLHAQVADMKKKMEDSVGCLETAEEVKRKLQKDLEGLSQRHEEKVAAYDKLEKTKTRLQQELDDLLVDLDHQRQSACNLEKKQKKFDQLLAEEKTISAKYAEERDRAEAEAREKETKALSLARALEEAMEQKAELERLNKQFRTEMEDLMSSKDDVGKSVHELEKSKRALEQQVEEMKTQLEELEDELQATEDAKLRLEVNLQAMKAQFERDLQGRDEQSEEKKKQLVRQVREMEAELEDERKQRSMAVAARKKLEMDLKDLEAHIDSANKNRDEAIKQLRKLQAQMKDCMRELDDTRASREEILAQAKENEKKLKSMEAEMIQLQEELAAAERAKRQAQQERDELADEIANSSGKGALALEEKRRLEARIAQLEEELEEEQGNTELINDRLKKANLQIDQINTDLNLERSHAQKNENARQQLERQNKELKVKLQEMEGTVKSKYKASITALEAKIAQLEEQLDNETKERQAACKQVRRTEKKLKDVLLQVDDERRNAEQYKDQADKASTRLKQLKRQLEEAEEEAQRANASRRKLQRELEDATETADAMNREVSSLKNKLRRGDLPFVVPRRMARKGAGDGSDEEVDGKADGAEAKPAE

## Cc1ccc(C(=O)Nc2cccc(C(F)(F)F)c2)cc1Nc1nc(-c2cccnc2)nc2nn(C)cc12
[1]
  ED50: 0.0265 µM
[2]
  ED50: 0.00647 µM
[3]
  ED50: 1.86 µM
Titin (Homo sapiens)
  ED50: 0.0126 µM
[4]
  ED50: 10 µM
[5]
  ED50: 69.8 µM
[6]
  ED50: 0.0603 µM
[7]
  ED50: 0.487 µM
[8]
  ED50: 0.106 µM
[9]
  ED50: 0.773 µM
[10]
  ED50: 2440 µM
[11]
  ED50: 0.553 µM
[12]
  ED50: 0.0503 µM
Myosin-9 (Homo sapiens)
  ED50: 0.0973 µM
[13]
  ED50: 33.1 µM
[14]
  ED50: 0.162 µM
[15]
  ED50: 0.213 µM
[16]
  ED50: 27 µM
[17]
  ED50: 0.214 µM
[18]
  ED50: 0.121 µM
[19]
  ED50: 0.139 µM
[20]
  ED50: 0.0643 µM
[21]
  ED50: 7.84 µM
[22]
  ED50: 1.91 µM
[23]
  ED50: 1.71 µM
[24]
  ED50: 8.2 µM
[25]
  ED50: 0.128 µM
[26]
  ED50: 9.32 µM
[27]
  ED50: 5.23 µM
[28]
  ED50: 1.74 µM
[29]
  ED50: 0.345 µM
[30]
  ED50: 0.0397 µM
[31]
  ED50: 0.00173 µM
[32]
  ED50: 0.0777 µM
[33]
  ED50: 0.0195 µM
[34]
  ED50: 0.0177 µM
[35]
  ED50: 7.41 µM
[36]
  ED50: 0.0135 µM
[37]
  ED50: 0.0748 µM
[38]
  ED50: 6.47 µM
[39]
  ED50: 4.94 µM
[40]
  ED50: 10.7 µM
[41]
  ED50: 0.126 µM
[42]
  ED50: 17.1 µM
[43]
  ED50: 0.0234 µM
Dynamin-2 (Homo sapiens)
  ED50: 0.471 µM

## Cc1ccc(C(=O)Nc2cccc(C(F)(F)F)c2)cc1Nc1nc(-c2cccnc2)nc2c1cnn2C
[1]
  ED50: 24 µM
[2]
  ED50: 0.0376 µM
[3]
  ED50: 4.52 µM
Titin (Homo sapiens)
  ED50: 0.0522 µM
[4]
  ED50: 0.000102 µM
[5]
  ED50: 0.0039 µM
[6]
  ED50: 0.874 µM
[7]
  ED50: 1.94 µM
[8]
  ED50: 3.06 µM
[9]
  ED50: 0.0169 µM
[10]
  ED50: 5.32 µM
[11]
  ED50: 93.7 µM
[12]
  ED50: 3.01 µM
Myosin-9 (Homo sapiens)
  ED50: 0.756 µM
[13]
  ED50: 0.173 µM
[14]
  ED50: 6.56 µM
[15]
  ED50: 0.114 µM
[16]
  ED50: 10.3 µM
[17]
  ED50: 2.64 µM
[18]
  ED50: 13.1 µM
[19]
  ED50: 0.122 µM
[20]
  ED50: 12900 µM
[21]
  ED50: 1.36 µM
[22]
  ED50: 0.0194 µM
[23]
  ED50: 0.0368 µM
[24]
  ED50: 0.0179 µM
[25]
  ED50: 11.6 µM
[26]
  ED50: 14.2 µM
[27]
  ED50: 1.27 µM
[28]
  ED50: 8.82 µM
[29]
  ED50: 58.3 µM
[30]
  ED50: 9.39 µM
[31]
  ED50: 10.2 µM
[32]
  ED50: 3.18 µM
[33]
  ED50: 2.39 µM
[34]
  ED50: 0.115 µM
[35]
  ED50: 2.64 µM
[36]
  ED50: 7.09 µM
[37]
  ED50: 0.0138 µM
[38]
  ED50: 0.0383 µM
[39]
  ED50: 0.00246 µM
[40]
  ED50: 3.36 µM
[41]
  ED50: 0.787 µM
[42]
  ED50: 0.00513 µM
[43]
  ED50: 5.13 µM
Dynamin-2 (Homo sapiens)
  ED50: 21.9 µM
